Test results: patent US4338331A, “Isoindoline derivative and a therapeutic composition thereof” (priority 1979, dated 1982)
Values joined by “and” are separate entries in the source; they are usually repeats but may differ in a detail not shown here. Equal values may be shown once.

How the values were obtained:
Type in all cases: in vivo, Wistar rat
male rats = experiment: Diuretic and saluretic activity: excretion of a load of distilled water (TABLE 2); conditions: 5 mg/kg oral + aqueous load
Description: (§1) Both the CM/1 and the Indapamide were administered orally after being suitably dissolved in the following solvent:
(§2) The controls were treated with an equal volume of solvent. The experiments were carried out on animals which had regularly fasted for at least 12 hours, but had free access to water.
(§3) The sodium and potassium in the urine were determined by a photometric method.
The rats were then immediately placed in individual metabolic cages. The urine was collected over 4 hours. The quantity has been expressed in the usual manner as a percentage of the volume administered.
Sodium and potassium were also analysed, and these have been expressed as mEq/4h.
After two days, in the preceding manner, the same rats were treated with Indapamide, and after a further two days with the product CM/1. In the interval between one test and the other, the rats were housed and fed in the normal manner. The dose used for both compounds was the same as previously, i.e. 5 mg/kg.

female Wistar rats [1] = experiment: Diuretic and saluretic activity: excretion of an aqueous saline load (TABLE 1); conditions: 5 mg/kg oral
Description: as §1, §2, §3
The effect on the excretion of an aqueous saline load was first checked. 18 female Wistar rats were used divided into three groups, one of 8 and two of 5, and these were treated in the following manner:
GROUP A: CONTROLS 1 ml of solvent made up to 50 ml with 0.9% sodium chloride solution, administered by gastric probe, per kg of body weight (=50 ml/kg in terms of volume);
GROUP B: INDAPAMIDE 5 mg/kg in 1 ml/kg of solvent made up to 50 ml/kg with sodium chloride solution, administered by gastric probe;
GROUP C: CM/1,5 mg/kg using the same method as for the Indapamide.
The rats were placed immediately in individual metabolic cages for collecting the urine during the three hours subsequent to the load. The quantity of urine excreted is given as a percentage of the quantity administered. The sodium and potassium are expressed in mEq/3h.
Values of P less than 0.05 have been considered significant.

female Wistar rats [2] = experiment: Effect on spontaneous diuresis (TABLE 3); conditions: 5 mg/kg oral; for Excreted sodium/potassium ratio: 12 h; for Potassium excretion / Sodium excretion: spontaneous diuresis
Description: These investigations were carried out on Wistar rats of both sexes, having a body weight which is specified in each case in the relative tables, which compare the results with Indapamide. Both the CM/1 and the Indapamide were administered orally after being suitably dissolved in the following solvent:
as §2, §3
Finally, the effect on the new product of spontaneous diuresis was determined.
These investigations were carried out on 15 female Wistar rats having a body weight varying from 230 to 260 g, and divided at random into three groups of 5. The animals were kept in individual metabolic cages overnight for a period of 12 hours in order to collect the urine spontaneously excreted. One group was treated as usual with 1 ml/kg of solvent by means of a gastric probe, and the other two were treated respectively with 5 mg/kg of Indapamide and 5 mg/kg of CM/1. The sodium and potassium were analysed as usual in the urine collected.

[3] = saline load, mean ± standard error, n = 5

CC1Cc2ccccc2N1NC(=O)c1ccc(Cl)c(S(N)(=O)=O)c1 (stereo not drawn) [Indapamide, N-(3-sulphamyl-4-chlorobenzamido)-2-methylindoline, reference compound]
diuretic and saluretic action (male rats): significant diuretic and saluretic action | RATIO Na/K (sodium to potassium excreted) (male rats; 4 h, average): 1.6764 | Cumulative percent excretion at 1 hour from load (male rats; individual rats): 25.8% and 35.7% and 0.0% and 27.6% and 51.6% | Cumulative percent excretion at 2 hours from load (male rats; individual rats): 83.9% and 92.8% and 42.9% and 82.8% and 101.7% | Cumulative percent excretion at 3 hours from load (male rats; individual rats): 116.1% and 107.2% and 85.8% and 110.4% and 121.1% | Cumulative percent excretion at 4 hours from load (male rats; individual rats): 138.7% and 107.2% and 114.4% and 110.4% and 140.5% | Potassium excretion (male rats; individual rats): 0.00998 mEq/4h and 0.00543 mEq/4h and 0.00814 mEq/4h and 0.00692 mEq/4h and 0.01579 mEq/4h | Sodium excretion (male rats; individual rats): 0.01808 mEq/4h and 0.00771 mEq/4h and 0.01403 mEq/4h and 0.01077 mEq/4h and 0.02694 mEq/4h | Cumulative percent excretion at 1 hour from load (male rats; mean of 5 rats): 28.14% | Cumulative percent excretion at 2 hours from load (male rats; mean of 5 rats): 80.82% | Cumulative percent excretion at 3 hours from load (male rats; mean of 5 rats): 108.12% | Cumulative percent excretion at 4 hours from load (male rats; mean of 5 rats): 122.24 ± 4.47% | Potassium excretion (male rats; mean of 5 rats): 0.009252 mEq/4h | Sodium excretion (male rats; mean of 5 rats): 0.01551 mEq/4h | Urine excretion of load in percent of quantity administered (cumulative excretion), 1 hour (female Wistar rats [1]; individual rats): 16.7% and 12.5% and 8.7% and 6.7% | Urine excretion of load in percent of quantity administered (cumulative excretion), 2 hours (female Wistar rats [1]; individual rats): 50.0% and 37.5% and 26.1% and 30.8% and 52.2% | Urine excretion of load in percent of quantity administered (cumulative excretion), 3 hours (female Wistar rats [1]; individual rats): 83.3% and 81.2% and 65.2% and 69.2% and 100.0% | Urine excretion of load in percent of quantity administered (cumulative excretion), 1 hour (female Wistar rats [1]; mean ± standard error, n = 5): 10.66 ± 1.77% | Urine excretion of load in percent of quantity administered (cumulative excretion), 2 hours (female Wistar rats [1]; mean ± standard error, n = 5): 39.32 ± 5.15% | diuretic and saluretic effect (female Wistar rats [1]; relative to the controls): significant diuretic and saluretic effect relative to the controls | ratio of the sodium to the potassium excreted during the 3 hours (female Wistar rats [1]; saline load): 4.48 | Potassium excretion (female Wistar rats [1]; saline load, individual rats): 0.36 mEq/3h and 0.38 mEq/3h and 0.28 mEq/3h and 0.31 mEq/3h and 0.33 mEq/3h | Sodium excretion (female Wistar rats [1]; saline load, individual rats): 1.50 mEg/3h and 1.45 mEg/3h and 1.33 mEg/3h and 1.61 mEg/3h and 1.55 mEg/3h | Potassium excretion (female Wistar rats [1]; [3]): 0.332 ± 0.0177 mEq/3h | Sodium excretion (female Wistar rats [1]; [3]): 1.488 ± 0.047 mEg/3h | excreted sodium and potassium (female Wistar rats [1]; versus controls): significantly higher than the controls | diuretic action (female Wistar rats [2]): marked diuretic action | sodium and potassium excretion (female Wistar rats [2]): increased | Excreted sodium/potassium ratio (female Wistar rats [2]; individual rats): 1.170 and 1.417 and 1.803 and 1.346 and 1.555 | Excreted sodium/potassium ratio (female Wistar rats [2]; mean ± standard error, n = 5): 1.4582 ± 0.106 | ml of urine collected in 12 hours (female Wistar rats [2]; individual rats): 11.5 mL and 13.7 mL and 18.6 mL and 14.5 mL and 15.5 mL | ml of urine collected in 12 hours (female Wistar rats [2]; mean ± standard error, n = 5): 14.76 ± 1.16 mL | Potassium excretion (female Wistar rats [2]; individual rats): 4.560 mEq/12h and 3.356 mEq/12h and 3.760 mEq/12h and 5.776 mEq/12h and 4.352 mEq/12h | Sodium excretion (female Wistar rats [2]; individual rats): 5.335 mEq/12h and 4.756 mEq/12h and 6.780 mEq/12h and 7.775 mEq/12h and 6.767 mEq/12h | Potassium excretion (female Wistar rats [2]; mean ± standard error, n = 5): 4.3608 ± 0.413 mEq/12h | Sodium excretion (female Wistar rats [2]; mean ± standard error, n = 5): 6.2826 ± 0.544 mEq/12h
